In PubChem BioAssay AID328 (DTP/NCI, 2004) one finds T/C data, which are given here for 17 compounds.

Where “and” joins values, the source holds several entries; their conditions need not be identical. Identical values can stand only once. Toxic doses and inconclusive results are not listed.

This assay relates to BDF1 mice, P388 leukemia ip, median survival T/C. Description: NCI In Vivo Anticancer Drug Screen. Data for tumor model P388 Leukemia (intraperitoneal) in B6D2F1 (BDF1) mice. To be noted: endpoint: median survival time, higher = longer survival. The method in brief:
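In tumour-bearing mice, survival after compound treatment is set against the vehicle group and given as a quotient.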

Where [1] appears, read: dose: 25.0 mg/kg/injection, schedule: Q01DX009 (ip), vehicle: saline.
[2] abbreviates: dose: 50.0 mg/kg/injection, schedule: Q01DX009 (ip), vehicle: Klucel (hydroxypropylcellulose) (HPC).
Where [3] appears, read: dose: 50.0 mg/kg/injection, schedule: Q04DX003 (ip), vehicle: saline with Tween-80.
The mark [4] stands for this setting: dose: 100.0 mg/kg/injection, schedule: Q01DX009 (ip), vehicle: Klucel (hydroxypropylcellulose) (HPC).
Setting [5] is: dose: 100.0 mg/kg/injection, schedule: Q04DX003 (ip), vehicle: Klucel (hydroxypropylcellulose) (HPC).
Where [6] appears, read: dose: 200.0 mg/kg/injection, schedule: Q01DX009 (ip), vehicle: Klucel (hydroxypropylcellulose) (HPC).
Where [7] appears, read: dose: 200.0 mg/kg/injection, schedule: Q04DX003 (ip), vehicle: Klucel (hydroxypropylcellulose) (HPC).
Where [8] appears, read: dose: 400.0 mg/kg/injection, schedule: Q04DX003 (ip), vehicle: Klucel (hydroxypropylcellulose) (HPC).
Where [9] appears, read: dose: 100.0 mg/kg/injection, schedule: Q01DX009 (ip), vehicle: saline with Tween-80.
The mark [10] stands for this setting: dose: 100.0 mg/kg/injection, schedule: Q04DX003 (ip), vehicle: saline with Tween-80.
Where [11] appears, read: dose: 200.0 mg/kg/injection, schedule: Q01DX009 (ip), vehicle: saline with Tween-80.
Where [12] appears, read: dose: 200.0 mg/kg/injection, schedule: Q04DX003 (ip), vehicle: saline with Tween-80.
The mark [13] stands for this setting: dose: 400.0 mg/kg/injection, schedule: Q04DX003 (ip), vehicle: saline with Tween-80.

Turning to `C=CCN1CSC(=S)N(CC=C)C1`, the T/C is 100 % of control (dose: 25.0 mg/kg/injection, schedule: Q01DX009 (ip), vehicle: saline with Tween-80) and 87 % of control (dose: 50.0 mg/kg/injection, schedule: Q01DX009 (ip), vehicle: saline with Tween-80).
Turning to `CC(C)(C)OC(=O)NC(CC(Cc1ccccc1)C(=O)O)C(=O)NC(CC(Cc1ccccc1)C(=O)O)C(=O)NC(CC(Cc1ccccc1)C(=O)O)C(=O)NCC(=O)Oc1ccc([N+](=O)[O-])cc1` (stereo not given), the T/C runs as follows: (dose: 50.0 mg/kg/injection, schedule: Q01DX005 (ip), vehicle: saline with Tween-80) 86 % of control; (dose: 200.0 mg/kg/injection, schedule: Q01DX005 (ip), vehicle: saline with Tween-80) 104 % of control.
As to `OCCN1CCN(CCCN2c3ccccc3Oc3ccc(C(F)(F)F)cc32)CC1`, the T/C by setting is: (dose: 15.0 mg/kg/injection, schedule: Q04DX003 (ip), vehicle: saline) 105 % of control; under setting [1], 104 % of control; (dose: 30.0 mg/kg/injection, schedule: Q04DX003 (ip), vehicle: saline) 115 % of control; under setting [2], 150 % of control; (dose: 120.0 mg/kg/injection, schedule: Q04DX003 (ip), vehicle: saline) 105 % of control.
As to `Oc1ccc(-c2n[nH]c3c2CCCc2ccccc2-3)cc1`, the T/C was 109 % of control (dose: 12.5 mg/kg/injection, schedule: Q04DX003 (ip), vehicle: saline with Tween-80); 118 % of control (dose: 25.0 mg/kg/injection, schedule: Q04DX003 (ip), vehicle: saline with Tween-80); 113 % of control under setting [3].
As for `O=C(/C=C/c1ccc2c(c1)OCO2)c1ccccc1`, the T/C under setting [2] was 114 % of control and 105 % of control; the T/C under setting [4] is 112 % of control and 100 % of control; the T/C under setting [5] is 104 % of control; the T/C under setting [6] is 112 % of control; the T/C under setting [7] was 100 % of control; the T/C under setting [8] was 95 % of control.
With `CC(=O)N(C)c1ccc(/C=C2\C=Cc3ccccc32)cc1`, the T/C under setting [9] is 100 % of control, the T/C under setting [10] is 90 % of control, the T/C under setting [11] was 95 % of control and the T/C under setting [12] was 100 % of control.
Consider `CCSC(=O)N1c2ccc(OC)cc2C=CC1C#N` (stereo not given), for which the T/C runs as follows: under setting [9], 164 % of control; under setting [11], 180 % of control; (dose: 400.0 mg/kg/injection, schedule: Q01DX009 (ip), vehicle: saline with Tween-80) 190 % of control; (dose: 600.0 mg/kg/injection, schedule: Q04DX003 (ip), vehicle: saline with Tween-80) 150 % of control.
With `C=Cn1cnc2c(N)ncnc21`, the T/C under setting [10] is 103 % of control, the T/C under setting [12] was 113 % of control and the T/C under setting [13] was 106 % of control.
Take `CC1SC(c2ccccc2)N(c2ccccc2)C1=O` (stereo not given): the T/C is, setting by setting: under setting [4], 104 % of control; under setting [5], 104 % of control; under setting [6], 116 % of control; under setting [7], 104 % of control; (dose: 400.0 mg/kg/injection, schedule: Q01DX009 (ip), vehicle: Klucel (hydroxypropylcellulose) (HPC)) 100 % of control; under setting [8], 109 % of control.
Turning to `CC(C)(CC(=O)O)CC(=O)OCC(=O)[C@@]1(O)CC[C@H]2[C@@H]3CCC4=CC(=O)C=C[C@]4(C)[C@H]3[C@@H](O)C[C@@]21C`, the T/C was 100 % of control (dose: 100.0 mg/kg/injection, schedule: Q01DX009 (ip), vehicle: steriod suspending solution); 120 % of control (dose: 100.0 mg/kg/injection, schedule: Q01DX009 (sc), vehicle: steriod suspending solution); 108 % of control (dose: 100.0 mg/kg/injection, schedule: Q04DX003 (sc), vehicle: steriod suspending solution); 90 % of control (dose: 200.0 mg/kg/injection, schedule: Q01DX009 (ip), vehicle: steriod suspending solution); 120 % of control and 122 % of control (dose: 200.0 mg/kg/injection, schedule: Q01DX009 (sc), vehicle: steriod suspending solution); 100 % of control (dose: 200.0 mg/kg/injection, schedule: Q04DX003 (sc), vehicle: steriod suspending solution). In addition, the T/C (dose: 400.0 mg/kg/injection, schedule: Q01DX009 (ip), vehicle: steriod suspending solution) is 90 % of control; the T/C (dose: 400.0 mg/kg/injection, schedule: Q01DX009 (sc), vehicle: steriod suspending solution) is 110 % of control; the T/C (dose: 400.0 mg/kg/injection, schedule: Q04DX003 (sc), vehicle: steriod suspending solution) was 104 % of control.
For the compound `CCN1/C(=C/C(C)=C/c2sc3ccccc3[n+]2CC)Sc2ccccc21`, the T/C is 116 % of control (dose: 25.0 micrograms/kg/injection, schedule: Q01DX009 (ip), vehicle: Klucel (hydroxypropylcellulose) (HPC)); 109 % of control and 120 % of control (dose: 50.0 micrograms/kg/injection, schedule: Q01DX009 (ip), vehicle: Klucel (hydroxypropylcellulose) (HPC)); 106 % of control and 108 % of control (dose: 100.0 micrograms/kg/injection, schedule: Q01DX009 (ip), vehicle: Klucel (hydroxypropylcellulose) (HPC)); 97 % of control (dose: 200.0 micrograms/kg/injection, schedule: Q01DX009 (ip), vehicle: Klucel (hydroxypropylcellulose) (HPC)); 106 % of control (dose: 400.0 micrograms/kg/injection, schedule: Q01DX009 (ip), vehicle: Klucel (hydroxypropylcellulose) (HPC)).
In the case of `CCCCCCCC(=O)Nc1c(C)cc(C)cc1C`, the T/C runs as follows: under setting [10], 109 % of control; under setting [12], 100 % of control; under setting [13], 109 % of control.
For the compound `O=c1cc(-c2ccc(OCc3ccccc3)c(-c3c(OCc4ccccc4)cc(OCc4ccccc4)c4c(=O)cc(-c5ccc(OCc6ccccc6)cc5)oc34)c2)oc2cc(OCc3ccccc3)cc(OCc3ccccc3)c12`, the T/C (dose: 100.0 mg/kg/injection, schedule: Q01DX001 (ip), vehicle: saline with Tween-80) was 88 % of control.
For the compound `CC(O)CN1CCCC1` (stereo not given), the T/C was 91 % of control (dose: 50.0 mg/kg/injection, schedule: Q04DX003 (ip), vehicle: saline); 104 % of control (dose: 100.0 mg/kg/injection, schedule: Q04DX003 (ip), vehicle: saline); 104 % of control (dose: 200.0 mg/kg/injection, schedule: Q04DX003 (ip), vehicle: saline).
Consider `CCB(CC)OCC1OB(CC)OC1C1OB(CC)OC1COB(CC)CC` (stereo not given), for which the T/C reads like this: (dose: 50.0 mg/kg/injection, schedule: Q01DX009 (ip), vehicle: saline) 99 % of control; (dose: 100.0 mg/kg/injection, schedule: Q01DX009 (ip), vehicle: saline) 97 % of control; (dose: 200.0 mg/kg/injection, schedule: Q01DX009 (ip), vehicle: saline) 99 % of control.
As to `Cc1ccc2c(c1)nc1c3ccccc3nnn21`, the T/C under setting [3] was 112 % of control, the T/C under setting [10] was 104 % of control and the T/C under setting [12] is 107 % of control.
For the compound `COc1cc2c(cc1OC)C1=C(CC2)C2CCCN2CC1` (stereo not given), the T/C (dose: 6.25 mg/kg/injection, schedule: Q01DX009 (ip), vehicle: saline) is 95 % of control; the T/C (dose: 12.5 mg/kg/injection, schedule: Q01DX009 (ip), vehicle: saline) is 105 % of control; the T/C under setting [1] was 95 % of control.
